Assay: Theophylline release experiment in pH 7 phosphate buffer
Assay type: physicochemical
Settings: FIG. 24
Procedure: First, the porous particles containing theophylline of Application Examples of 4-1 to 4-4 were dispersed in a phosphate buffer solution of pH 7 at 200 mg/100 mL.
Next, the solution was collected over time, filtered by a filter, and thereafter analyzed by high-performance liquid chromatography, and the concentration of theophylline in the solution was measured.

With `Cn1c(=O)c2[nH]cnc2n(C)c1=O` [theophylline alone, theophylline] as the molecule, how does the “Theophylline release / dissolution behaviour” value read?
The value was “whole amount was dissolved instantaneously”.

Source: patent US20170319483A1, “METHOD FOR PRODUCING POROUS PARTICLE” (National Institute for Materials Science, priority 2014, published 2017)
